# Source: the Kinase Knowledgebase extract (Sharma et al. 2016)
# Target: CDK2 (human) (UniProt P24941)
# Experiment: Enzyme Assay
# Settings: concentration not given here
row,SMILES,inhibition [%]
1,CS(=O)(=O)c1ccccc1S(=O)(=O)N1CCC(Nc2nc(N)c(C(=O)c3c(F)cccc3F)s2)CC1,-5
2,COc1cc(C(O)C(=O)N2CCC(Nc3nc(N)c(C(=O)c4c(F)cccc4F)s3)CC2)ccc1O (centres undefined),26
3,Nc1nc(NC2CCN(C(=O)/C=C/c3ccccc3O)CC2)sc1C(=O)c1c(F)cccc1F,74
4,Nc1nc(NC2CCN(C(=O)CNc3ccccc3)CC2)sc1C(=O)c1c(F)cccc1F,57
5,[N-]=[N+]=C1C=C(S(=O)(=O)N2CCC(Nc3nc(N)c(C(=O)c4c(F)cccc4F)s3)CC2)c2ccccc2C1=O,-11
6,CC(=O)CCCC(=O)N1CCC(Nc2nc(N)c(C(=O)c3c(F)cccc3F)s2)CC1,68
7,CCCCCCC(=O)N1CCC(Nc2nc(N)c(C(=O)c3c(F)cccc3F)s2)CC1,59
8,CC(=O)N1CCC(C(=O)N2CCC(Nc3nc(N)c(C(=O)c4c(F)cccc4F)s3)CC2)CC1,36
9,Nc1nc(NC2CCN(C(=O)/C=C/c3cccc(Cl)c3)CC2)sc1C(=O)c1c(F)cccc1F,24
10,Nc1nc(NC2CCN(C(=O)c3cc(F)cc(F)c3)CC2)sc1C(=O)c1c(F)cccc1F,80
11,CC(=O)CC(=O)C(=O)N1CCC(Nc2nc(N)c(C(=O)c3c(F)cccc3F)s2)CC1,50
12,Nc1nc(NC2CCN(C(=O)C(O)c3ccccc3Cl)CC2)sc1C(=O)c1c(F)cccc1F (centres undefined),51
13,Cc1cccc(Cl)c1C(=O)N1CCC(Nc2nc(N)c(C(=O)c3c(F)cccc3F)s2)CC1,47
14,COc1cccc(CC(=O)N2CCC(Nc3nc(N)c(C(=O)c4c(F)cccc4F)s3)CC2)c1OC,70
15,CCOC(=O)CCCC(=O)N1CCC(Nc2nc(N)c(C(=O)c3c(F)cccc3F)s2)CC1,-6
16,Nc1nc(NC2CCN(C(=O)COc3ccc(F)cc3)CC2)sc1C(=O)c1c(F)cccc1F,83
17,C[C@@H](O)CC(=O)N1CCC(Nc2nc(N)c(C(=O)c3c(F)cccc3F)s2)CC1,72
18,CCC(C)(O)C(=O)N1CCC(Nc2nc(N)c(C(=O)c3c(F)cccc3F)s2)CC1 (centres undefined),25
19,CCCCC(=O)N1CCC(Nc2nc(N)c(C(=O)c3c(F)cccc3F)s2)CC1,48
20,Cc1cc(Cl)ccc1C(=O)N1CCC(Nc2nc(N)c(C(=O)c3c(F)cccc3F)s2)CC1,45
21,CCC(O)(CC)C(=O)N1CCC(Nc2nc(N)c(C(=O)c3c(F)cccc3F)s2)CC1,17
22,C=CCC(C)(C)C(=O)N1CCC(Nc2nc(N)c(C(=O)c3c(F)cccc3F)s2)CC1,14

row,SMILES,inhibition [%]
1,Nc1nc(NC2CCN(C(=O)/C=C/c3ccncc3)CC2)sc1C(=O)c1c(F)cccc1F,80
2,Nc1nc(NC2CCN(C(=O)Cc3ccc(Cl)cc3)CC2)sc1C(=O)c1c(F)cccc1F,58
3,Nc1nc(NC2CCN(C(=O)c3cccc4ccccc34)CC2)sc1C(=O)c1c(F)cccc1F,55
4,CCCCCCCC(=O)N1CCC(Nc2nc(N)c(C(=O)c3c(F)cccc3F)s2)CC1,53
5,Nc1nc(NC2CCN(C(=O)CN3C(=O)CSC3=S)CC2)sc1C(=O)c1c(F)cccc1F,64
6,Nc1nc(NC2CCN(C(=O)CCCc3cccs3)CC2)sc1C(=O)c1c(F)cccc1F,65
7,COc1ccc(OCC(=O)N2CCC(Nc3nc(N)c(C(=O)c4c(F)cccc4F)s3)CC2)cc1,74
8,CC[C@@H](C(=O)N1CCC(Nc2nc(N)c(C(=O)c3c(F)cccc3F)s2)CC1)c1ccccc1,41
9,Nc1nc(NC2CCN(C(=O)c3ccc[n+]([O-])c3)CC2)sc1C(=O)c1c(F)cccc1F,46
10,Cc1ccc(/C=C/C(=O)N2CCC(Nc3nc(N)c(C(=O)c4c(F)cccc4F)s3)CC2)c(C)c1,31
11,Nc1nc(NC2CCN(C(=O)c3cnccc3C(F)(F)F)CC2)sc1C(=O)c1c(F)cccc1F,18
12,Nc1nc(NC2CCN(C(=O)N3CCCC3)CC2)sc1C(=O)c1c(F)cccc1F,-10
13,Nc1nc(NC2CCN(C(=O)CC3CCCCC3)CC2)sc1C(=O)c1c(F)cccc1F,-5
14,Nc1nc(NC2CCN(C(=O)C(O)Cc3ccc(O)cc3)CC2)sc1C(=O)c1c(F)cccc1F (centres undefined),34
15,Nc1nc(NC2CCN(C(=O)c3ccc4[nH]cnc4c3)CC2)sc1C(=O)c1c(F)cccc1F,72
16,Nc1nc(NC2CCN(S(=O)(=O)c3ccc(CNC(=O)c4ccc(O)cc4)s3)CC2)sc1C(=O)c1c(F)cccc1F,55
17,COc1ccccc1C(O)C(=O)N1CCC(Nc2nc(N)c(C(=O)c3c(F)cccc3F)s2)CC1 (centres undefined),27
18,CC(=O)CCCCC(=O)N1CCC(Nc2nc(N)c(C(=O)c3c(F)cccc3F)s2)CC1,49
19,CCN(CC)C(=O)N1CCC(Nc2nc(N)c(C(=O)c3c(F)cccc3F)s2)CC1,-43
20,CS(=O)(=O)CS(=O)(=O)N1CCC(Nc2nc(N)c(C(=O)c3c(F)cccc3F)s2)CC1,-23
21,CS(=O)(=O)CC(=O)N1CCC(Nc2nc(N)c(C(=O)c3c(F)cccc3F)s2)CC1,45
22,COc1c(C)cccc1C(=O)N1CCC(Nc2nc(N)c(C(=O)c3c(F)cccc3F)s2)CC1,10

row,SMILES,inhibition [%]
1,Nc1nc(NC2CCN(C(=O)Cc3cccc(Cl)c3)CC2)sc1C(=O)c1c(F)cccc1F,62
2,Nc1nc(NC2CCN(C(=O)c3cc4ccccc4o3)CC2)sc1C(=O)c1c(F)cccc1F,64
3,CO[C@H](C(=O)N1CCC(Nc2nc(N)c(C(=O)c3c(F)cccc3F)s2)CC1)c1ccccc1,50
4,CCCC[C@H]1CC[C@H](C(=O)N2CCC(Nc3nc(N)c(C(=O)c4c(F)cccc4F)s3)CC2)CC1,45
5,N#C/C(=C\c1ccccc1)C(=O)N1CCC(Nc2nc(N)c(C(=O)c3c(F)cccc3F)s2)CC1,67
6,C[C@](O)(C(=O)N1CCC(Nc2nc(N)c(C(=O)c3c(F)cccc3F)s2)CC1)c1ccccc1,77
7,COc1cc(SC)ccc1C(=O)N1CCC(Nc2nc(N)c(C(=O)c3c(F)cccc3F)s2)CC1,22
8,Nc1nc(NC2CCN(C(=O)c3cccc(F)c3F)CC2)sc1C(=O)c1c(F)cccc1F,11
9,CC/C=C/CC(=O)N1CCC(Nc2nc(N)c(C(=O)c3c(F)cccc3F)s2)CC1,46
10,CCOc1cccc(C(=O)N2CCC(Nc3nc(N)c(C(=O)c4c(F)cccc4F)s3)CC2)c1,75
11,CN(CC(=O)N1CCC(Nc2nc(N)c(C(=O)c3c(F)cccc3F)s2)CC1)C(=O)OC(C)(C)C,12
12,CCCCC(CC)COC(=O)N1CCC(Nc2nc(N)c(C(=O)c3c(F)cccc3F)s2)CC1 (centres undefined),-42
13,CC(C)C(C)C(=O)N1CCC(Nc2nc(N)c(C(=O)c3c(F)cccc3F)s2)CC1 (centres undefined),35
14,Cc1ccccc1CC(=O)N1CCC(Nc2nc(N)c(C(=O)c3c(F)cccc3F)s2)CC1,56
15,Nc1nc(NC2CCN(C(=O)C3COc4ccccc4O3)CC2)sc1C(=O)c1c(F)cccc1F (centres undefined),58
16,Nc1nc(NC2CCN(C(=O)C3CC(=O)c4ccccc43)CC2)sc1C(=O)c1c(F)cccc1F (centres undefined),79
17,CC(=O)c1ccc(O)c(C(=O)N2CCC(Nc3nc(N)c(C(=O)c4c(F)cccc4F)s3)CC2)c1,9
18,CCOC(=O)C(=O)N1CCC(Nc2nc(N)c(C(=O)c3c(F)cccc3F)s2)CC1,-13
19,CCC(C)(O)CC(=O)N1CCC(Nc2nc(N)c(C(=O)c3c(F)cccc3F)s2)CC1 (centres undefined),47
20,Nc1nc(NC2CCN(C(=O)c3ccco3)CC2)sc1C(=O)c1c(F)cccc1F,49
